US20250009877A1, “TREATMENT FOR CANCER” (Seagen Inc., priority 2021, published 2025)

Legend:
FcγIII receptors = details: compared to the fucosylated parent antibody dacetuzumab; cited from earlier work
murine CD40 = murine CD40 (Mus musculus, UniProt P27512); test: Recognition of murine CD40; type: binding
CD40 signaling pathway = details: compared to the parent antibody dacetuzumab; cited from earlier work
interleukin-10 (IL-10) = test: Induction of immune-dampening cytokines; details: unlike fully agonistic antibodies such as antibody 24.4.1

Chain of murine CD40 (P27512 20-289): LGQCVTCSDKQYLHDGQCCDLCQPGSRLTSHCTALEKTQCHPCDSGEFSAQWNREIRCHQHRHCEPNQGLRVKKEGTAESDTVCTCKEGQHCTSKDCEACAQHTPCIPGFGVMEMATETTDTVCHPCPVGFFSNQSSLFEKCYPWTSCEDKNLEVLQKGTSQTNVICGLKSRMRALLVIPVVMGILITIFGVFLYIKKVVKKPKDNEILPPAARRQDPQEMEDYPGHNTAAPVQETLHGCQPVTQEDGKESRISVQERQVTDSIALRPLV

Substance: SEA-CD40: non-fucosylated humanized S2C6 anti-CD40 antibody; heavy chain SEQ ID NO: 1, light chain SEQ ID NO: 2; parent antibody dacetuzumab
- binding to FcγIII receptors (FcγIII receptors): enhanced binding
- recognition of murine CD40 (murine CD40): does not recognize
- ability to activate the CD40 signaling pathway in immune cells (CD40 signaling pathway): enhanced ability to activate
- production of immune-dampening cytokines such as interleukin-10 (IL-10) (interleukin-10 (IL-10)): does not induce production
